Here are results for 59 molecules from ChEMBL document CHEMBL3217453, “Aminomethyl substituted thieno[2,3-d]pyrimidines as adenosine A2A receptor antagonists” (Medchemcomm, 2011).

One test deals with Adenosine receptor A2a (Homo sapiens, UniProt P29274). Kind of test: Antagonist activity at human adenosine A2A receptor expressed in CHO-K1 cells preincubated for 15 mins before NECA addition measured after 5.5 to 6 hrs by beta-galactosidase reporter gene assay. The test is classed as functional, cell-based. In general terms: In a reporter assay the amount or activity of a reporter protein is the signal.

In a further test the target is T1, Adenosine receptor A1 (Homo sapiens, UniProt P30542).
T1 sequence (P30542 whole entry): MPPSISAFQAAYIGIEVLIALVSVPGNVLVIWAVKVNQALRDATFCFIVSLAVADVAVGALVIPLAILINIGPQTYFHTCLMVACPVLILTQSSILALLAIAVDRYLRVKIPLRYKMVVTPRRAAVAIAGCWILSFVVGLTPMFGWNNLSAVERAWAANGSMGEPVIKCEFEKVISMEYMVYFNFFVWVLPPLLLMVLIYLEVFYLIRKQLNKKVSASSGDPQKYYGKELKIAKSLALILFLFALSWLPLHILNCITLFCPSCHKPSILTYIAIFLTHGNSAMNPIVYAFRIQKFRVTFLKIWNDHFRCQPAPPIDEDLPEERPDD
The test can be described thus: Antagonist activity at human adenosine A1 receptor expressed in CHO-K1 cells preincubated for 15 mins before r-PIA addition measured after 5.5 to 6 hrs by beta-galactosidase reporter gene assay. The test is classed as cell-based.

Test [1] concerns Mus musculus. Kind of test: Reversal of haloperidol-induced catalepsy in balb/c mouse at 10 mg/kg, po compound administered 30 mins post challenge. Type of test: functional.
The subject of test [2] is Mus musculus. Kind of test: Reversal of haloperidol-induced catalepsy in po dosed balb/c mouse compound administered 30 mins post challenge. Type of test: functional. As to conditions: 0.5 h.

Active and inactive are the calls of the source. The calls are words filed in the database; no cut-off is given here. Some results are limits rather than exact numbers.

Adenosine receptor A2a, sequence (P29274 whole entry): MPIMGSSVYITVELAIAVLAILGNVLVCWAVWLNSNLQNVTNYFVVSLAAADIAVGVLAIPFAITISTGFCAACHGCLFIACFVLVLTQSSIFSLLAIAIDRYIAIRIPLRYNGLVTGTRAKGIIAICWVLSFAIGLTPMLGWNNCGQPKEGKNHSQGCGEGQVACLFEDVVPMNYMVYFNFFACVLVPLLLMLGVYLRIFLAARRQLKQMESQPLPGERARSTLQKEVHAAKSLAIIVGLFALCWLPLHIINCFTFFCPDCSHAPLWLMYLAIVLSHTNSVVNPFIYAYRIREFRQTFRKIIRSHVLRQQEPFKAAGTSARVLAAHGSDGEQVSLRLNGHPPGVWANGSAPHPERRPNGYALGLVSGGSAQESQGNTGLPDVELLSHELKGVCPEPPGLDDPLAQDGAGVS

As usually defined, the Ki is a measure of affinity in units of concentration, obtained from inhibition or displacement. Read a high Ki as a looser hold on the target. Turning to `N#Cc1ccc(-c2nc(N)c3cc(CN4CC=CCC4)sc3n2)cc1`, the inhibition constant (Ki) at Adenosine receptor A2a was 180 nM.

Molecule `Cc1csc(-c2nc(N)c3cc(CN4CCOCC4)sc3n2)n1` had an inhibition constant Ki on Adenosine receptor A1 above 930 nM.

Turning to `Cc1ccc(-c2nc(N)c3cc(CN4CCCCC4)sc3n2)o1`, the outcome with Mus musculus [1] was inactive. The same molecule displayed a Ki on Adenosine receptor A2a of 28.8 nM.

In the case of `Nc1nc(-c2ccc(Cl)o2)nc2sc(CN3CCCC3)cc12`, in the test on Mus musculus [1], the result was inactive.

Take `Nc1nc(-c2ccccc2)nc2sc(CN3CCOCC3)cc12`: the results for the inhibition constant (Ki) at Adenosine receptor A1 and at Adenosine receptor A2a were above 5000 nM and 995 nM, respectively.

Turning to `Nc1nc(-c2ccc(Cl)o2)nc2sc(CN3CC=CCC3)cc12`, the Ki on Adenosine receptor A1 came out at 190 nM; at Adenosine receptor A2a, 11 nM.

For orientation: ED50 means the dose at which the effect has come halfway, by size or by number of responders. With `Nc1nc(-c2ccco2)nc2sc(CN3CC=CCC3)cc12`, the ED50 in the test with Mus musculus [2] was below 3 mg/kg. The Ki on Adenosine receptor A1 is 150 nM; at Adenosine receptor A2a, 6.5 nM.

`N#Cc1cccc(-c2nc(N)c3cc(CN4CCOCC4)sc3n2)c1`: the 50% effective dose (ED50) in the test on Mus musculus [2] was below 1 mg/kg.

As for `Nc1nc(-c2ccc(Cl)o2)nc2sc(CN3CCC(F)CC3)cc12`, the affinity on Adenosine receptor A2a corresponds to a Ki of 36.7 nM.

Regarding `Nc1nc(-c2ccco2)nc2sc(CN3CCSCC3)cc12`, the ED50 with Mus musculus [2] was found to be 3.2 mg/kg. Moreover, the inhibition constant (Ki) on Adenosine receptor A1 was 369 nM; at Adenosine receptor A2a it was 9.2 nM.

Consider `CN(C)C(=O)c1cccc(-c2nc(N)c3cc(CN4CCC(F)CC4)sc3n2)c1`, for which the Ki on Adenosine receptor A1 is above 10000 nM; at Adenosine receptor A2a, 2250 nM.

Turning to `CC(C)c1ccc(-c2nc(N)c3cc(CN4[C@H](C)CCC[C@@H]4C)sc3n2)o1`, the Ki turned out to be 140 nM on Adenosine receptor A1 and 17 nM on Adenosine receptor A2a. In addition, the result in the test on Mus musculus [1] was inactive.

Consider `Nc1nc(-c2ncco2)nc2sc(CN3CC=CC3)cc12`, for which the inhibition constant (Ki) at Adenosine receptor A1 was determined as 3890 nM; at Adenosine receptor A2a, 240 nM.

Consider `N#Cc1cccc(-c2nc(N)c3cc(CN4CCSCC4)sc3n2)c1`, for which the values for the inhibition constant (Ki) at Adenosine receptor A1 and at Adenosine receptor A2a were 980 nM and 50.9 nM, respectively.

On to `Nc1nc(-c2ccc(C(F)(F)F)cc2)nc2sc(CN3CCC(F)CC3)cc12`, for which the Ki on Adenosine receptor A1 is 3560 nM; on Adenosine receptor A2a it was above 10000 nM.

For the molecule `Nc1nc(-c2ccco2)nc2sc(CN3CCOCC3)cc12`, in the test on Mus musculus [2], the median effective dose (ED50) is 1.3 mg/kg. Also, the inhibition constant Ki at Adenosine receptor A1 was 1680 nM; on Adenosine receptor A2a, 29 nM.

For the molecule `CC(C)c1ccc(-c2nc(N)c3cc(CN4CCOCC4)sc3n2)o1`, the Ki was above 600 nM at Adenosine receptor A1 and above 1360 nM on Adenosine receptor A2a.

Take `Nc1nc(-c2ccc(C3CC3)o2)nc2sc(CN3CCOCC3)cc12`: the Ki at Adenosine receptor A1 is above 1100 nM.

`CN(C)Cc1cc2c(N)nc(-c3ccco3)nc2s1` registered an inhibitory constant (Ki) at Adenosine receptor A2a of 140 nM.

On to `Nc1nc(-c2ccc(Cl)o2)nc2sc(CN3CCCC(F)(F)C3)cc12`, for which the figures for the inhibition constant (Ki) at Adenosine receptor A1 and on Adenosine receptor A2a were 188 nM and 9.1 nM, respectively.

As for `N#Cc1cccc(-c2nc(N)c3cc(CN4CCCC(F)(F)C4)sc3n2)c1`, the ED50 in the test on Mus musculus [2] is below 1 mg/kg. Also, the Ki on Adenosine receptor A1 turned out to be 840 nM; at Adenosine receptor A2a, 39 nM.

For `CS(=O)(=O)c1cccc(-c2nc(N)c3cc(CN4CCC(F)CC4)sc3n2)c1`, the Ki at Adenosine receptor A1 and at Adenosine receptor A2a was above 10000 nM each time.

Turning to `N#Cc1cccc(-c2nc(N)c3cc(CN4CCC(F)CC4)sc3n2)c1`, the median effective dose (ED50) in the test with Mus musculus [2] is below 1 mg/kg. On Adenosine receptor A2a, this molecule yielded a Ki of 54.4 nM.

Turning to `Nc1nc(-c2ccc(Cl)o2)nc2sc(CN3CCOCC3)cc12`, the results for the inhibition constant (Ki) on Adenosine receptor A1 and at Adenosine receptor A2a were 640 nM and 45.4 nM, respectively.

Turning to `Nc1nc(-c2ccc(Cl)o2)nc2sc(CN3CCC(F)(F)C3)cc12`, the figures for the Ki at Adenosine receptor A1 and on Adenosine receptor A2a were 245 nM and 15.9 nM, respectively.

Turning to `Nc1nc(-c2ccco2)nc2sc(CN3CCCC3)cc12`, the outcome with Mus musculus [1] was inactive.

`Cc1ccc(-c2nc(N)c3cc(CN4CCCC4)sc3n2)o1`: the result in the test with Mus musculus [1] was inactive.

Take `Nc1nc(-c2ccc(C(F)F)o2)nc2sc(CN3CCCC(F)(F)C3)cc12`: on Adenosine receptor A2a, the affinity, expressed as Ki, was 43.2 nM.

Regarding `Nc1nc(-c2ccco2)nc2sc(CN3CCCC(F)(F)C3)cc12`, in the test with Mus musculus [2], the ED50 was below 1 mg/kg. This molecule also yielded a Ki at Adenosine receptor A1 of 290 nM.

`Nc1nc(-c2cccc(F)c2)nc2sc(CN3CCOCC3)cc12` returned an inhibition constant (Ki) at Adenosine receptor A2a of 110 nM. This counts as sub-micromolar.

For the molecule `Nc1nc(-c2cccs2)nc2sc(CN3CCCC3)cc12`, the inhibitory constant (Ki) is above 10000 nM on Adenosine receptor A1 and 110 nM at Adenosine receptor A2a.

`Nc1nc(-c2cccc(Cl)c2)nc2sc(CN3CCOCC3)cc12` gave a Ki at Adenosine receptor A2a of 120 nM.

For `C[C@@H]1CCC[C@H](C)N1Cc1cc2c(N)nc(-c3ccc(C4CC4)o3)nc2s1`, at Adenosine receptor A2a, the Ki stood at 110 nM.

Take `Nc1nc(-c2ccco2)nc2sc(CN3CC=CC3)cc12`: the ED50 with Mus musculus [2] was below 0.1 mg/kg. Besides, the results for the Ki at Adenosine receptor A1 and at Adenosine receptor A2a were 290 nM and 7.2 nM, respectively.

In the case of `CCc1ccc(-c2nc(N)c3cc(CN4[C@H](C)CCC[C@@H]4C)sc3n2)o1`, the inhibition constant (Ki) came to 190 nM on Adenosine receptor A1 and 25.2 nM at Adenosine receptor A2a.

`N#Cc1ccc(-c2nc(N)c3cc(CN4CCC(F)CC4)sc3n2)cc1` came in with a Ki at Adenosine receptor A2a of 390 nM.

`Nc1nc(-c2ccc(C(F)F)o2)nc2sc(CN3CCOCC3)cc12`: the outcome in the test with Mus musculus [1] was inactive.

For `Nc1nc(-c2ccco2)nc2sc(CN3CCC(F)(F)C3)cc12`, in the test on Mus musculus [2], the median effective dose (ED50) is 10 mg/kg. This molecule also yielded an inhibition constant (Ki) on Adenosine receptor A2a of 8.7 nM.

As to `C[C@@H]1CCC[C@H](C)N1Cc1cc2c(N)nc(-c3ccc(C(F)F)o3)nc2s1`, the result in the test on Mus musculus [1] was inactive. The same molecule returned an inhibitory constant (Ki) on Adenosine receptor A2a of 28.6 nM.

Consider `Nc1nc(-c2ccco2)nc2sc(CNC3CC3)cc12`, for which the result in the test on Mus musculus [1] was inactive.

Take `Nc1nc(-c2ccccc2C(F)(F)F)nc2sc(CN3CCC(F)CC3)cc12`: the inhibition constant Ki on Adenosine receptor A1 and on Adenosine receptor A2a was above 10000 nM in each case.

As for `Nc1nc(-c2cccc([N+](=O)[O-])c2)nc2sc(CN3CCC(F)CC3)cc12`, the Ki at Adenosine receptor A1 was above 10000 nM; on Adenosine receptor A2a, 3760 nM.

With `Nc1nc(-c2cccs2)nc2sc(CN3CCOCC3)cc12`, the inhibitory constant (Ki) at Adenosine receptor A1 turned out to be 1020 nM; at Adenosine receptor A2a it was 125 nM.

For the molecule `CCc1ccc(-c2nc(N)c3cc(CN4CCOCC4)sc3n2)o1`, the inhibitory constant (Ki) at Adenosine receptor A1 is above 610 nM.

As to `Nc1nc(-c2ccc(Br)o2)nc2sc(CN3CCOCC3)cc12`, the figures for the inhibition constant Ki on Adenosine receptor A1 and at Adenosine receptor A2a were 725 nM and 30 nM, respectively.

For the molecule `Nc1nc(-c2cccc(C(F)(F)F)c2)nc2sc(CN3CCC(F)CC3)cc12`, the inhibitory constant (Ki) at Adenosine receptor A1 is 3030 nM; at Adenosine receptor A2a, above 10000 nM.

Consider `Nc1nc(-c2ccc(Br)o2)nc2sc(CN3CCCC3)cc12`, for which the Ki worked out at 710 nM on Adenosine receptor A1 and 22.5 nM at Adenosine receptor A2a. Besides, the result with Mus musculus [1] was inactive.

Consider `Nc1nc(-c2ccco2)nc2sc(CN3CCCCCC3)cc12`, for which the values for the Ki on Adenosine receptor A1 and at Adenosine receptor A2a were 1170 nM and 27.6 nM, respectively.

Take `C[C@@H]1CCC[C@H](C)N1Cc1cc2c(N)nc(-c3ccc(Br)o3)nc2s1`: the inhibition constant Ki at Adenosine receptor A1 came out at 40.2 nM.

Consider `C[C@@H]1CCC[C@H](C)N1Cc1cc2c(N)nc(-c3ccco3)nc2s1`, for which the Ki on Adenosine receptor A2a stood at 5.3 nM.

For `N#Cc1cccc(-c2nc(N)c3cc(CN4CCCC4)sc3n2)c1`, the Ki on Adenosine receptor A2a is above 10000 nM.

With `Nc1nc(-c2ccco2)nc2sc(CN3CCC(F)CC3)cc12`, in the test on Mus musculus [2], the median effective dose (ED50) is below 1 mg/kg. The Ki at Adenosine receptor A2a was determined as 19.7 nM.

The molecule `Nc1nc(-c2cccc(C(F)(F)F)c2)nc2sc(CN3CC=CC3)cc12` had a Ki at Adenosine receptor A1 of 2960 nM.

Consider `Nc1nc(-c2ccc(Cl)o2)nc2sc(CN3CC=CC3)cc12`, for which the result in the test on Mus musculus [1] was inactive. The Ki at Adenosine receptor A2a is 10 nM.

In the case of `Nc1nc(-c2ccco2)nc2sc(CN3CCC(F)C3)cc12` (stereo unspecified), the outcome in the test with Mus musculus [1] was inactive. The same molecule gave a Ki at Adenosine receptor A2a of 10.3 nM.

`Nc1nc(-c2ccco2)nc2sc(CNC3CCCCC3)cc12`: affinity at Adenosine receptor A2a was put at a Ki of 170 nM.

`Nc1nc(-c2nccs2)nc2sc(CN3CCOCC3)cc12`: the affinity at Adenosine receptor A2a corresponds to a Ki of 250 nM. This Ki and that of the molecule before are within 1.5-fold of each other.

As for `Nc1nc(-c2ncco2)nc2sc(CN3CC=CCC3)cc12`, the figures for the Ki at Adenosine receptor A1 and at Adenosine receptor A2a were 2960 nM and 240 nM, respectively.

In turn, `Nc1nc(-c2ccco2)nc2sc(CN3CCC(F)(F)CC3)cc12` came in with an inhibition constant Ki on Adenosine receptor A2a of 49.6 nM. That is a double-digit nanomolar value.
